Where two headings read alike, the source gives them in different places.
How the values were obtained:
MAP4K4 (h) = MAP4K4 (h) (Homo sapiens (Human), UniProt O95819); assay: MAP4K4 in vitro kinase assay (radiometric); format: biochemical; details: read-out: MAP4K4_IC50
Procedure: (§1) (specific activity and concentration as required). The reaction is initiated by the addition of the Mg/ATP mix. After incubation for 40 minutes at room temperature, the reaction is stopped by the addition of phosphoric acid to a concentration of 0.5%.

TNIK = TNIK (Homo sapiens (Human), UniProt Q9UKE5); assay: TNIK enzymatic assay (radiometric kinase inhibition); format: biochemical
Procedure: as §1, with “The compounds were studied for function as TNIK inhibitors to generate the data of Table 1. […] (specific” for “(specific”

[1] = TNIK enzymatic assay, Table 1, read-out: IC50

Chain of MAP4K4 (h) (O95819 whole entry): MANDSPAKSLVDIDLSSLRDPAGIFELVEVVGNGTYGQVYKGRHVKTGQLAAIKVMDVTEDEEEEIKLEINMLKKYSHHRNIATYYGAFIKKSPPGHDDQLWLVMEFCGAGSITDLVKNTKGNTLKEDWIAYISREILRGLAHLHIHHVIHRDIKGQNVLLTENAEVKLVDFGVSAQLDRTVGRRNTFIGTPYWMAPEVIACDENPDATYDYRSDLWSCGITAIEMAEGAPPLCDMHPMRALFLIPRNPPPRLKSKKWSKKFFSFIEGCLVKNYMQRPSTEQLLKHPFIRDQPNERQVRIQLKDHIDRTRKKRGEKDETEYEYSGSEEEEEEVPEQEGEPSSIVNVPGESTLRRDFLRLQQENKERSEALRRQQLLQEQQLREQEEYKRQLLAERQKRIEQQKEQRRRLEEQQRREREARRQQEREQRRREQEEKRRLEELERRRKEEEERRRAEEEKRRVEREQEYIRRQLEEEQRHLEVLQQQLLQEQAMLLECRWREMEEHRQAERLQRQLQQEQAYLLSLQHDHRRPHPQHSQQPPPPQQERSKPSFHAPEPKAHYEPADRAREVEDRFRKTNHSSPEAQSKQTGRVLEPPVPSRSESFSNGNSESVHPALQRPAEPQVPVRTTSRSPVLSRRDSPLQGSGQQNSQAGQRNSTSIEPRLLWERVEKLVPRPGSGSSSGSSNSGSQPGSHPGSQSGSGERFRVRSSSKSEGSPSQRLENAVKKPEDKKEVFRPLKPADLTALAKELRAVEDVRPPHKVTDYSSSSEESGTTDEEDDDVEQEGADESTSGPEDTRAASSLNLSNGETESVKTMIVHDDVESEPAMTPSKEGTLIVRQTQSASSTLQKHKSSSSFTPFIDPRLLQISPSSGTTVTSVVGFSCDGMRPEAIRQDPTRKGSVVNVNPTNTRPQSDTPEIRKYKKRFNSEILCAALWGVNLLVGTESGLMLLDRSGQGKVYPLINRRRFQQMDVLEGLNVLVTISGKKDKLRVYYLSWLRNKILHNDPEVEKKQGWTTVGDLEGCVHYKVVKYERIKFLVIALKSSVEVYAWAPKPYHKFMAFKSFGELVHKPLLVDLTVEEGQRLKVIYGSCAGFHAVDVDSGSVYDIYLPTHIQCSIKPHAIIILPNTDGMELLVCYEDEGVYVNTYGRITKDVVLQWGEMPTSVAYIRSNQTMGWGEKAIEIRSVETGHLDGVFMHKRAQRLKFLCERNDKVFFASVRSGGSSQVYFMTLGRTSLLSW
Chain of TNIK (Q9UKE5 whole entry): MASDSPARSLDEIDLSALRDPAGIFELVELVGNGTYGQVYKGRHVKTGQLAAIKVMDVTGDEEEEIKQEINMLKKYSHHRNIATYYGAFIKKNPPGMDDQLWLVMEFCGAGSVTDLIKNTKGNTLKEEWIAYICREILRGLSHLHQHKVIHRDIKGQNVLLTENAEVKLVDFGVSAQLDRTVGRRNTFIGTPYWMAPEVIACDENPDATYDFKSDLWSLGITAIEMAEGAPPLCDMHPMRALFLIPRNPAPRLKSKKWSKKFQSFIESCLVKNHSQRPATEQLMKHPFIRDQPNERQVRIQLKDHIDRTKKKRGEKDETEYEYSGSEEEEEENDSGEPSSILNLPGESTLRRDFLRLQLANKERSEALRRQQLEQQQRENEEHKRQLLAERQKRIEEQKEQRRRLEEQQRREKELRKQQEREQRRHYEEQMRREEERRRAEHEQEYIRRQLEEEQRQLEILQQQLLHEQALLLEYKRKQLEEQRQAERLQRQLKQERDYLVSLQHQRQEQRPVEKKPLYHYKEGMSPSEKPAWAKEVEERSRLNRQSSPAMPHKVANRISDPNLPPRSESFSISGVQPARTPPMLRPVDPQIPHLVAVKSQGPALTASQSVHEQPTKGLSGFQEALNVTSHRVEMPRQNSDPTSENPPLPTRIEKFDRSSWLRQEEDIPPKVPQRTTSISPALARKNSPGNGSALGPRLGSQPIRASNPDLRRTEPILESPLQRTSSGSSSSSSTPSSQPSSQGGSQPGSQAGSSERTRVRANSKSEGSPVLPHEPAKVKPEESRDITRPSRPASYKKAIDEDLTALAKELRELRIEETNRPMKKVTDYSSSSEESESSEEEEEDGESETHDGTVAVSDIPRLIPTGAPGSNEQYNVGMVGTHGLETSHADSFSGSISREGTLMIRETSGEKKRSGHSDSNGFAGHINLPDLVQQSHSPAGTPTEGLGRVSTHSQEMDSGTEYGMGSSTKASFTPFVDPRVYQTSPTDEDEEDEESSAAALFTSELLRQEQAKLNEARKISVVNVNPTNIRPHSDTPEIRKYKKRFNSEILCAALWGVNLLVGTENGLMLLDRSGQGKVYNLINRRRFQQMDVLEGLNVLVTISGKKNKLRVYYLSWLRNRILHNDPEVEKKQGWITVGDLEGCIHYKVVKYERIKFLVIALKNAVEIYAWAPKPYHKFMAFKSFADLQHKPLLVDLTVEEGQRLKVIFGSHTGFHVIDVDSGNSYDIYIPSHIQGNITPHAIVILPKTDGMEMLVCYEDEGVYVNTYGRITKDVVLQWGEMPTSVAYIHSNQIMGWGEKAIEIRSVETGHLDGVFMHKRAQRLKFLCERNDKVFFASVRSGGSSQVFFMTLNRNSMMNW

Row | Compound | IC50 (MAP4K4 (h)) [nM] | IC50 (TNIK; [1]) [nM] | IC50 (TNIK; read-out: TNIK_IC50) [nM]
1 | CSc1cccc(NC(=O)c2ccc(-c3c(-c4ccc(F)cc4)ncn3C3CCCC3)o2)c1 [Compound 36, 5-(1-cyclopentyl-4-(4-fluorophenyl)-1H-imidazol-5-yl)-N-(3-(methylthio)phenyl)furan-2-carboxamide] | 326 | 110 | 110
2 | Cc1ccc(C)c(NC(=O)c2ccc(-c3c(-c4ccc(F)cc4)ncn3C3CCCC3)o2)c1 [Compound 31, 5-(1-cyclopentyl-4-(4-fluorophenyl)-1H-imidazol-5-yl)-N-(2,5-dimethylphenyl)furan-2-carboxamide] | 457 | 135 | 135
3 | CCOC(=O)c1ccc(NC(=O)c2ccc(-c3c(-c4ccc(F)cc4)ncn3C3CCCC3)o2)cc1 [Compound 33, ethyl 4-(5-(1-cyclopentyl-4-(4-fluorophenyl)-1H-imidazol-5-yl)furan-2-carboxamido)benzoate] | 87.3 | 27 | 27
4 | CCc1ccccc1NC(=O)c1ccc(-c2c(-c3ccc(F)cc3)ncn2C2CCCCC2)o1 [Compound 61, 5-(1-cyclohexyl-4-(4-fluorophenyl)-1H-imidazol-5-yl)-N-(2-ethylphenyl)furan-2-carboxamide] | 247 | 164 | 164
5 | O=C(Nc1ccc(F)cc1F)c1ccc(-c2c(-c3ccc(F)cc3)ncn2C2CCCCC2)o1 [Compound 57, 5-(1-cyclohexyl-4-(4-fluorophenyl)-1H-imidazol-5-yl)-N-(2,4-difluorophenyl)furan-2-carboxamide] | 111 | 38 | 38

Other lines, results leading:

Row | IC50 (MAP4K4 (h)) [nM] | IC50 (TNIK; [1]) [nM] | IC50 (TNIK; read-out: TNIK_IC50) [nM] | Compound
6 | 10.9 | < 10 | 15.2 | O=C(Nc1ccccc1Cl)c1ccc(-c2c(-c3ccc(F)cc3)ncn2C2CCCC2)o1 [Compound 14, N-(2-chlorophenyl)-5-(1-cyclopentyl-4-(4-fluorophenyl)-1H-imidazol-5-yl)furan-2-carboxamide]
7 | 165 | 165 | 165 | COc1ccc(NC(=O)c2ccc(-c3c(-c4ccc(F)cc4)ncn3C3CCCC3)o2)cc1Cl [Compound 45, N-(3-chloro-4-methoxyphenyl)-5-(1-cyclopentyl-4-(4-fluorophenyl)-1H-imidazol-5-yl)furan-2-carboxamide]
8 | 195 | 99 | 99 | O=C(Nc1ccc(Cl)cc1)c1ccc(-c2c(-c3ccc(F)cc3)ncn2C2CCCCC2)o1 [Compound 56, N-(4-chlorophenyl)-5-(1-cyclohexyl-4-(4-fluorophenyl)-1H-imidazol-5-yl)furan-2-carboxamide]
9 | < 10 |  | 4.21 | COc1cnccc1NC(=O)c1ccc(-c2c(-c3ccc(F)cc3)ncn2C2CCOC2)o1 (stereo not shown) [Compound A-38, 5-(4-(4-fluorophenyl)-1-(tetrahydrofuran-3-yl)-1H-imidazol-5-yl)-N-(3-methoxypyridin-4-yl)furan-2-carboxamide]
10 | 625 | 151 | 151 | CC(=O)c1cccc(NC(=O)c2ccc(-c3c(-c4ccc(F)cc4)ncn3C3CCCCC3)o2)c1 [Compound 71, N-(3-acetylphenyl)-5-(1-cyclohexyl-4-(4-fluorophenyl)-1H-imidazol-5-yl)furan-2-carboxamide]
11 | 3070 |  | 1340 | O=C(Nc1c(O)cncc1F)c1ccc(-c2c(-c3ccc(F)cc3)ncn2C2COCC2F)o1 (stereo not drawn) [Compound A-56, N-(3-fluoro-5-hydroxypyridin-4-yl)-S-(4-(4-fluorophenyl)-1-(4-fluorotetrahydrofuran-3-yl)-1H-imidazol-5-yl)furan-2-carboxamide]
12 | 36.8 | 11 | 11 | CC(=O)c1ccc(NC(=O)c2ccc(-c3c(-c4ccc(F)cc4)ncn3C3CCCC3)o2)cc1 [Compound 9, N-(4-acetylphenyl)-5-(1-cyclopentyl-4-(4-fluorophenyl)-1H-imidazol-5-yl)furan-2-carboxamide]

Source: patent US11739078B2, “Methods of inhibiting kinases” (INSILICO MEDICINE IP LIMITED, priority 2019, dated 2023)
